Data reported in publication PMC12293736, “Discovery of N-(6-Methoxypyridin-3-yl)quinoline-2-amine Derivatives for Imaging Aggregated α-Synuclein in Parkinson’s Disease with Positron Emission Tomography” (Cells, 2025).
Like-named read-outs stand apart in the source and are kept apart here.

Target: recombinant α-synuclein fibrils (Homo sapiens, UniProt P37840)
Assay: radioactive competitive binding assay with [^3H]BF2846 (Tables 1 and 2: or [^18F]7j with LBD-amplified fibrils)
Description: Three concentrations of the test compounds (10 nM, 100 nM, and 1 μM) were selected and individually mixed with [^3H]BF2846 (∼4 nM). Each mixture was then separately added to 50 nM of recombinant α-syn fibrils in a working buffer (50 mM Tris-HCl, 0.01% bovine serum albumin (BSA)). The mixture (150 μL) was gently mixed via agitation, covered, and then incubated at 37 °C for 1.5 h in a non-binding 96-well plate (Corning Inc., Corning, NY, USA; catalog no. 3605). The mixture was filtered through a Unifilter-96 harvesting system (PerkinElmer Inc., Waltham, MA, USA) and then washed three times with 250 μL of ice-cold buffer containing 10 mM Tris-HCl (pH 7.4), 15 mM NaCl, and 20% EtOH. Next, 50 μL of scintillation cocktail (MicroScint-20, PerkinElmer) was added to the collected filtrate and counted on a Microbeta system (PerkinElmer Inc., Waltham, MA, USA). The total binding was measured in the absence of the tested compounds, and non-specific binding was defined by the presence of 100 nM of unlabeled BF2846 in the working buffer.
For the full curve of α-syn competition binding, [^3H]BF2846 (∼4 nM) was incubated with fixed concentrations of 50 nM α-syn fibrils and ten concentrations of the tested compounds (0.05−1000 nM). All data points were collected in three individual experiments. The equilibrium inhibition constants, Ki values, were obtained from EC50 values using the equation Ki = EC50/(1 + [radioligand]/Kd) via non-linear regression from GraphPad Prism v.9.3.1 (GraphPad Software, San Diego, CA, USA) […]
In addition, competition assays were performed with LBD-amplified fibrils and [^18F]TZ61-44 with slight modifications. The method used to produce LBD-amplified fibrils is described by Dhavale et al., and the source of the tissue was the Banner Sun Health Research Institute Brain and Body Donation Program of Sun City, Arizona. Each test compound concentration (0.001–1 µM) was individually mixed with [^18F]TZ61-44 (2 nM), and the resulting mixture was then added to 25 nM of LBD-amplified fibrils in 30 mM of Tris-HCl buffer (pH 7.4) containing 0.1% BSA. The mix was incubated for 1 h with shaking. The samples were then transferred to Multiscreen FB filter plates (Catalog MSFBN6B50, MilliporeSigma) and washed three times with cold (4 °C) buffer. The glass fiber filters containing fibril-bound radioligands were removed and counted immediately in a PerkinElmer (1450-021) Trilux MicroBeta Liquid Scintillation counter using 150 µL of Optiphase Supermix cocktail (Perkin Elmer). All data points were obtained in triplicate. The data were analyzed using Graphpad Prism software (version 10) to the obtain EC50 and Ki values by fitting the data to a one-site competition model. The synthesis of the tested compounds is described in the Supporting Information. […]
6. Alpha-Synuclein Binding Affinity Studies a). Determination of α-synuclein binding activity using radioactive competitive assay [ 3H]BF2846 Three concentrations of test compounds (10nM, 100nM, and 1μM) were selected and individually mixed with [3H]BF2846 ( ∼4 nM). Each mixture was then separately added to 50 nM of recombinant α-syn fibrils in a working buffer (50 mM Tris-HCl, 0.01% bovine serum albumin (BSA)). The mixture (150 μL) was gently mixed by agitation, covered, and then incubated at 37°C for 1.5 h in a nonbinding 96 well plate (Corning, 3605). The mixture was filtered through a Unifilter – 96 harvesting system (PerkinElmer) and then washed three times with 250 μL of ice-cold buffer containing 10 mM Tris – HCl (pH7.4), 15mM NaCl, and 20% EtOH. 50μL of scintillation cocktail (MicroScint-20, PerkinElmer) was added to the collected filtrate and counted on a Microbeta system (PerkinElmer). Total binding was measured in the absence of tested compounds, and nonspecific binding was defined by the presence of 100 nM unlabeled BF2846 in the working buffer. The data analysis was carried out in the following equation and graphically presented with a heatmap. […]

[1] = Table 1, vs. [^3H]BF2846 or [^18F]7j as radioligand, NB = no binding affinity measurable, read-out: Ki
[2] = [^3H]BF2846 competitive assay, read-out: Ki value for α-synuclein fibrils
[3] = Table 2, [^3H]BF2846 or [^18F]7j indirect competitive binding assay, read-out: Ki
[4] = Table 3, [^3H]BF2846 indirect competitive binding assay, read-out: Ki

Row | SMILES | Ki [3] [nM] | Ki [4] [nM] | further results
1 | COc1ccc(Nc2ccc3ccccc3n2)cn1 [Compound 3a] |  |  | Ki [1]: ~100 nM; Ki [2]: 100 nM
2 | COc1ccc(Nc2cnc3ccccc3c2)cn1 [Compound 3c] |  |  | Ki [1]: 418 nM
3 | COc1ccc(Nc2ccc3ncccc3c2)cn1 [Compound 3d] |  |  | Ki [1]: > 1000 nM
4 | COc1ccc(Nc2ccc3cnccc3c2)cn1 [Compound 3e] |  |  | Ki [1]: 46 nM
5 | COc1ccc(Nc2ccc3ccncc3c2)cn1 [Compound 3f] |  |  | Ki [1]: > 1000 nM
6 | COc1ccc(Nc2ccc3cccnc3c2)cn1 [Compound 3g] |  |  | Ki [1]: > 1000 nM
7 | COc1ccc(Nc2cc(F)c3ccccc3n2)cn1 [Compound 5b] | 65 |  | 
8 | COc1ccc(Nc2ccc3c(F)cccc3n2)cn1 [Compound 5c] | 33 |  | 
9 | COc1ccc(Nc2ccc3cc(F)ccc3n2)cn1 [Compound 5d] | 27 |  | 
10 | COc1ccc(Nc2ccc3ccc(F)cc3n2)cn1 [Compound 5e] | 53 |  | 
11 | COc1ccc(Nc2ccc3cccc(F)c3n2)cn1 [Compound 5f] | 41 |  | 
12 | COc1ccc(Nc2ccc3cc([N+](=O)[O-])ccc3n2)cn1 [Compound 7a] | 21 |  | 
13 | COc1ccc(Nc2ccc3cc(N)ccc3n2)cn1 [Compound 7c] | 82 |  | 
14 | COc1ccc(Nc2ccc3cc(O)ccc3n2)cn1 [Compound 7e, 2-((6-Methoxypyridin-3-yl)amino)quinolin-6-ol] | 70 |  | 
15 | COc1ccc2nc(Nc3ccc(OC)nc3)ccc2c1 [Compound 7f] | 4.6 |  | 
16 | COc1ccc(Nc2ccc3cc(OC(F)F)ccc3n2)cn1 [Compound 7g] | 23 |  | 
17 | COc1ccc(Nc2ccc3cc(OC(F)(F)F)ccc3n2)cn1 [Compound 7h] | ~100 |  | Ki [2]: 100 nM
18 | COc1ccc(Nc2ccc3cc(OS(=O)(=O)F)ccc3n2)cn1 [Compound 7i] | 320 |  | 
19 | COc1ccc(Nc2ccc3cc(OCCF)ccc3n2)cn1 [Compound 7j] | 6.4 |  | 
20 | COc1ccc(Nc2ccc3cc(OCCOCCF)ccc3n2)cn1 [Compound 7k] |  | 50 | 

Row | SMILES | Ki [3] [nM] | Ki [4] [nM] | further results
21 | COc1ccc(Nc2ccc3cc(OCCOCCOCCF)ccc3n2)cn1 [Compound 7l] |  | 49 | 
22 | COc1ccc(Nc2ccc3cc(OCCOCCOCCOCCF)ccc3n2)cn1 [Compound 7m] |  | 42 | 
23 | COc1ccc2nc(Nc3ccc(F)nc3)ccc2c1 [Compound 7n] |  | 397 | 
24 | COc1ccc2nc(Nc3ccc(C(F)(F)F)nc3)ccc2c1 [Compound 7o] |  | 182 | 
25 | FCCOc1ccc2nc(Nc3ccc(C(F)(F)F)nc3)ccc2c1 [Compound 7p] |  | 81 | 
26 | COc1ccc2nc(Nc3ccc(OC(F)(F)F)nc3)ccc2c1 [Compound 7q] |  | 10 | 
27 | COc1ccc2nc(Nc3ccc(SC)nc3)ccc2c1 [Compound 7r] |  | 197 | 
28 | Cc1ccc(Nc2ccc3cc(OCCF)ccc3n2)cn1 [Compound 7s] |  | 26.1 | 
29 | FCCOc1ccc2nc(Nc3cccnc3)ccc2c1 [Compound 7t] |  | > 500 | 
30 | COc1ccc(Nc2ccc3cc(OCC(F)(F)F)ccc3n2)cn1 [Compound 7u] |  | 44.6 | 
31 | COc1ccc(Nc2ccc3cc(OCC4COC4)ccc3n2)cn1 [Compound 8a] |  | > 500 | 
32 | COc1ccc(Nc2ccc3cc(OCC4CCCCC4)ccc3n2)cn1 [Compound 8b] |  | > 500 | 
33 | COc1ccc(Nc2ccc3cc(OCc4ccccc4)ccc3n2)cn1 [Compound 8c] |  | 47.7 | 
34 | COc1ccc(Nc2ccc3cc(OCc4cccnc4)ccc3n2)cn1 [Compound 8e] |  | 24 | 
35 | COc1ccc(COc2ccc3nc(Nc4ccc(OC)nc4)ccc3c2)cc1 [Compound 8f] |  | 20 | 
36 | COc1cccc(COc2ccc3nc(Nc4ccc(OC)nc4)ccc3c2)c1 [Compound 8g] |  | 36 | 
37 | COc1ccc(Nc2ccc3cc(OCc4ccc(F)cc4)ccc3n2)cn1 [Compound 8h] |  | 66.3 | 
38 | COc1ccc(Nc2ccc3cc(OC/C=C/I)ccc3n2)cn1 [Compound 8i] |  | 5 | 
39 | COc1ccc(Nc2ccc3nc(Nc4ccc(OC)nc4)ccc3c2)cn1 [Compound 8j] |  | > 1000 | 
